Reference: US9833510B2, “Modified release solid or semi-solid dosage forms” (Johnson & Johnson Consumer Inc., priority 2007, dated 2017)
Where a name gives a salt, the structure may show the parent alone.

How the values were obtained:
[1] = typical duration of action (period of therapeutic effect) of an immediate release dose, from product labeling; format: in vivo; conditions: for ATDAIRD (average therapeutic duration of action of an effective immediate release dose): average of typical duration range; for ATDAIRD: as restated, unit not given
Text: As used herein, “ATDAIRD” shall mean the average therapeutic duration of action of an effective immediate release dose” of a particular active ingredient. […] The therapeutic duration of action of a particular active ingredient can readily be determined from the dosing instructions in the labeling for immediate release products containing that particular active ingredient.

[2] = background statement; typically administered every 2 to 4 hours; cited from earlier work

CC(C)Cc1ccc(C(C)C(=O)O)cc1 (stereo not shown) [ibuprofen, 2-(4-isobutylphenyl)-propionic acid]
ATDAIRD (average therapeutic duration of action of an effective immediate release dose) [1]: 5 h

CC(C(=O)O)c1cccc(C(=O)c2ccccc2)c1 (stereo not shown) [ketoprofen]
ATDAIRD (average therapeutic duration of action of an effective immediate release dose) [1]: 5 h

COc1ccc2cc([C@H](C)C(=O)O)ccc2c1 [naproxen]
ATDAIRD (average therapeutic duration of action of an effective immediate release dose) [1]: 10 h

CNC[C@H](O)c1cccc(O)c1 [phenylephrine hydrochloride]
therapeutically effective plasma concentration (duration) [2]: about 2.5 hours

CNC[C@H](O)c1cccc(O)c1 [phenylephrine, benzynemethanol, 3-hydroxy-α-[(methylamino)methyl]]
ATDAIRD [1]: about 3
ATDAIRD (average therapeutic duration of action of an effective immediate release dose) [1]: 3 h

CN[C@@H](C)[C@@H](O)c1ccccc1 [psuedoephedrine]
ATDAIRD [1]: about 3
